Where “and” joins values, the source holds several entries; their conditions need not be identical. Identical values can stand only once. Like-named read-outs stand apart in the source and are kept apart here.
Legend:
[1] = Biodistribution in healthy CB57/BL6 mice with estimated human dosimetry (OLINDA/EXM); assay type: in vivo
Procedure: Using female mice was justified due to the lack of sex-related differences observed from initial dose-finding studies. […] At various time points mice were euthanized and tissues were harvested, weighed, and assayed for radioactivity by gamma counter. Decay corrected data is presented as percent injected dose per gram of tissue (%ID/g). […]
Animal studies were performed in female mice due to the lack of sex-related differences for [^211At]PTT tolerability from initial dose response studies performed in female and male mice. Female mice were chosen due to their underlying behavior towards other study subjects that reduced nonstudy-related causes for decreased wellness. Pre-clinical efficacy studies were performed through “single mouse testing” to more closely recapitulate a clinical trial. […] Number size for treatment groups was determined by model tumor growth reproducibility, which was previously shown to have less than 5% normal variation with at least two animals. Statistical tests for tumor response and event-free survival (EFS) were performed as a grouped analysis that included all tumor models treated at each respective dose level (n = 2 per model per dose level). Statistical differences between treatment groups for tumor response was performed by paired-model T-test that compared reduction in tumor volume for the 36 MBq/kg dose level vs. 24 MBq/kg or 12 MBq/kg. Event free survival was measured by area over the curve method to quantify time to event, which was set as tumor growth exceeding 2 cm[3],[19]. Differences in EFS were tested across all treated models for each respective dose level, and against untreated controls, by paired-model ANOVA analysis. Associations of drug target expression and response were performed by linear regression analysis of EFS and PARP1 mRNA expression. Genetic signatures were visually presented as a function of EFS and no statistical tests were applied. Blood and marrow toxicity studies were performed with n = 5 sample sizes and powered to detect >20% differences between untreated controls and treated animals. Results were tested for significance by one-way ANOVA comparison from untreated controls. Marrow colony formation assays were performed in replicates of 2 for each mouse subject, dependent on marrow isolation, and all replicates are included in final analyses. Statistical analysis was performed by ordinary one-way ANOVA comparison between the mean of control and test groups. Biodistribution studies were performed with n = 3 mice per time-point. Human dosimetry was calculated using OLINDA/EXM v1.1 software by fitting time activity curves for biodistribution data in a healthy mouse model. Tumor dosimetry was calculated by OLINDA/EXM v1.1 by fitting time activity curves for NB-EBC1 tumors from biodistribution data. All statistical analyses were performed in GraphPad Prism version 9.3.1 unless indicated otherwise.

[2] = assay type: in vivo, CB57 SCID mice
Procedure: Toxicity studies were done in nontumor bearing CB-17 SCID mice (Taconic Biosciences). […] Each arm had n = 10 mice (5 male, 5 female mice). […] The vehicle group received an equal volume of saline (placebo). Weights were obtained twice weekly and mice were monitored daily for signs of toxicity. […] On target hematological and marrow toxicity which was evaluated by complete blood counts and marrow colony formation assay. An additional study was performed under identical conditions to evaluate additive dose effects. […] Each treatment group was composed of equal numbers of male and female mice to rule out gender-specific effects (n = 4 per treatment group per time point). Mice were followed for signs of acute toxicity for 2 weeks and 4 weeks before euthanasia. An additional group (n = 4) treated at 36 MBq/kg was euthanized after 72 h to assess early signs of toxicity by colony formation assays. This time course was chosen to best capture the nadir of bone marrow suppression. After euthanasia, blood was collected and femurs were dissected and processed for histopathology and bone marrow evaluation.
Su p p lemen t ary Fig u res
Supplementary Fi g u re 1 : Maximum tolerated dose finding studies for [211At]PT T adm inistered as 4
dose fractions given twice weekly in male and female CB57 SCID mice (n=3 per sex per dose level).
(1 picture or pasted object on this page, not shown here)

[3] = 1-year-old, from CB57/BL6 mouse biodistribution
[4] = 5-year-old, from CB57/BL6 mouse biodistribution

O=C1NCCn2c(-c3ccc([211At])cc3)nc3cccc1c32 [[^211At]PTT, Astatine-211-parthanatine]
marrow dose per dose fraction ([1]; 0.02 kg mouse, 36 MBq/kg): approximately 2.5 Gy | Estimated human dosimetry, Adrenals [1, 3]: 0.005 Gy per MBq/kg | Estimated human dosimetry, Brain [1, 3]: 0.002 Gy per MBq/kg | Estimated human dosimetry, Breasts [1, 3]: 0.005 Gy per MBq/kg | Estimated human dosimetry, Gallbladder [1, 3]: 0.005 Gy per MBq/kg | Estimated human dosimetry, Heart [1, 3]: 0.017 Gy per MBq/kg and 0.026 Gy per MBq/kg and 0.020 Gy per MBq/kg | Estimated human dosimetry, Kidneys [1, 3]: 0.021 Gy per MBq/kg and 0.034 Gy per MBq/kg and 0.028 Gy per MBq/kg | Estimated human dosimetry, Left Colon [1, 3]: 0.005 Gy per MBq/kg and 0.006 Gy per MBq/kg | Estimated human dosimetry, Liver [1, 3]: 0.019 Gy per MBq/kg and 0.018 Gy per MBq/kg and 0.033 Gy per MBq/kg | Estimated human dosimetry, Muscle [1, 3]: 0.008 Gy per MBq/kg and 0.016 Gy per MBq/kg | Estimated human dosimetry, Ovaries [1, 3]: 0.005 Gy per MBq/kg | Estimated human dosimetry, Red Marrow [1, 3]: 0.070 Gy per MBq/kg and 0.091 Gy per MBq/kg and 0.065 Gy per MBq/kg and 0.073 Gy per MBq/kg | Estimated human dosimetry, Right Colon [1, 3]: 0.005 Gy per MBq/kg and 0.006 Gy per MBq/kg | Estimated human dosimetry, Skin [1, 3]: 0.005 Gy per MBq/kg | Estimated human dosimetry, Small Intestine [1, 3]: 0.005 Gy per MBq/kg | Estimated human dosimetry, Spleen [1, 3]: 0.061 Gy per MBq/kg and 0.070 Gy per MBq/kg and 0.084 Gy per MBq/kg and 0.051 Gy per MBq/kg | Estimated human dosimetry, Stomach [1, 3]: 0.005 Gy per MBq/kg | Estimated human dosimetry, Testes [1, 3]: 0.005 Gy per MBq/kg | Estimated human dosimetry, Thymus [1, 3]: 0.005 Gy per MBq/kg | Estimated human dosimetry, Total Body [1, 3]: 0.009 Gy per MBq/kg and 0.010 Gy per MBq/kg and 0.011 Gy per MBq/kg | Estimated human dosimetry, Urinary Bladder [1, 3]: 0.005 Gy per MBq/kg | Estimated human dosimetry, Uterus [1, 3]: 0.005 Gy per MBq/kg | Estimated human dosimetry, Adrenals [1, 4]: 0.004 Gy per MBq/kg and 0.005 Gy per MBq/kg | Estimated human dosimetry, Brain [1, 4]: 0.002 Gy per MBq/kg and 0.001 Gy per MBq/kg | Estimated human dosimetry, Breasts [1, 4]: 0.004 Gy per MBq/kg and 0.005 Gy per MBq/kg | Estimated human dosimetry, Gallbladder [1, 4]: 0.004 Gy per MBq/kg and 0.005 Gy per MBq/kg | Estimated human dosimetry, Heart [1, 4]: 0.015 Gy per MBq/kg and 0.016 Gy per MBq/kg and 0.024 Gy per MBq/kg and 0.018 Gy per MBq/kg | Estimated human dosimetry, Kidneys [1, 4]: 0.018 Gy per MBq/kg and 0.029 Gy per MBq/kg and 0.023 Gy per MBq/kg | Estimated human dosimetry, Left Colon [1, 4]: 0.004 Gy per MBq/kg and 0.005 Gy per MBq/kg | Estimated human dosimetry, Ovaries [1, 4]: 0.004 Gy per MBq/kg and 0.005 Gy per MBq/kg | Estimated human dosimetry, Red Marrow [1, 4]: 0.074 Gy per MBq/kg and 0.069 Gy per MBq/kg and 0.093 Gy per MBq/kg and 0.066 Gy per MBq/kg | Estimated human dosimetry, Right Colon [1, 4]: 0.004 Gy per MBq/kg and 0.005 Gy per MBq/kg | Estimated human dosimetry, Skin [1, 4]: 0.004 Gy per MBq/kg and 0.005 Gy per MBq/kg | Estimated human dosimetry, Small Intestine [1, 4]: 0.004 Gy per MBq/kg and 0.005 Gy per MBq/kg | Estimated human dosimetry, Spleen [1, 4]: 0.055 Gy per MBq/kg and 0.063 Gy per MBq/kg and 0.076 Gy per MBq/kg and 0.049 Gy per MBq/kg | Estimated human dosimetry, Stomach [1, 4]: 0.004 Gy per MBq/kg and 0.005 Gy per MBq/kg | Estimated human dosimetry, Testes [1, 4]: 0.004 Gy per MBq/kg and 0.005 Gy per MBq/kg | Estimated human dosimetry, Thymus [1, 4]: 0.004 Gy per MBq/kg and 0.005 Gy per MBq/kg | Estimated human dosimetry, Total Body [1, 4]: 0.009 Gy per MBq/kg and 0.011 Gy per MBq/kg | Estimated human dosimetry, Urinary Bladder [1, 4]: 0.004 Gy per MBq/kg and 0.005 Gy per MBq/kg | Estimated human dosimetry, Uterus [1, 4]: 0.004 Gy per MBq/kg and 0.005 Gy per MBq/kg | predicted kidney dose scaled for an adult ([1]; derived from the mouse model): 0.34–0.44 mGy/MBq | predicted kidney dose ([1]; extrapolated from mouse biodistribution to a 1-year-old human phantom): 0.026 Gy per MBq/kg | maximum tolerated dose (MTD) ([2]; intra-peritoneal, twice weekly, total of 4 dose fractions): 36 MBq/kg | maximum tolerated dose (MTD) ([2]; x4 fractionated regimen, SCID PDX mice): 36 MBq/kg/fraction

Source: PMC9671962 (Communications Biology, 2022)
